Publication PMC11392399, “The final walk with preptin” (PLOS ONE, 2024)
No end group written: not given here.

Legend:
IR-A in IM-9 lymphocytes = experiment: Competitive binding assay for IR-A with [125I]-monoiodotyrosyl-TyrA14-insulin; design: species or system human; settings: tracer 125I-insulin, only at the concentrations > 10^-6M, n ≥ 3
From the text: (§1) We also tested whether non-labeled preptins can bind to any of receptors for IGF2 (i.e. IR, IGF1R and IGF2R) in competitive binding assays, employing ^125I-labeled human insulin, IGF1 or IGF2. To determine binding to the IGF1R, we used mouse fibroblasts transfected with human IGF1R and with deleted mouse IGF1R (R+39 cells), according to Hexnerova et al.. We used non-transfected 3T3 fibroblasts to determine binding to IGF2R, because these cells contain essentially only IGF2R [5] and we used human IM-9 lymphocytes to determine affinity for IR-A [31].
(§2) Binding affinities of ligands for IGF1R were determined with [^125I]-Iodotyrosyl-IGF1 (2,614 Ci/mmol) prepared in the IOCB radioisotope laboratory by a procedure described in Kertisova et al.. Binding affinities for IR-A were determined with [^125I]-monoiodotyrosyl-TyrA14-insulin (2,200 Ci/mmol), prepared as described by Asai et al.. […]
(§3) The dissociation constant (Kd) values were determined with GraphPad Prism 8, using a nonlinear regression method, a one-site fitting program and considering the potential depletion of free ligand. […] Relative binding affinities were calculated as (Kd of the native hormone/Kd of analog) × 100 (in %). The relative binding affinity S.D. values of analogs were calculated as S.D. = Kd of the native hormone/Kd of peptide ×100 × √[(S.D. native/Kd native)^2 + (S.D. analog/Kd analog)^2].

[1] = tested on: intracellular calcium in U-2 OS osteoblasts; experiment: Changes in intracellular calcium, U-2 OS osteoblasts; format: cell-based, human; settings: U-2 OS cells; 10^−4 M; Fluo-8 fluorescence, (Fmax−F0)/F0; one-way ANOVA
Method: (§4) The day before the experiment, U-2 OS, MC3T3-E1, MIN6 and cAMP-HEK cells were seeded 6 000 (for osteoblastic cell lines U-2 OS, MC3T3-E1), 10 000 (for cAMP-HEK cells) or 30 000 (MIN6) cells per well in a black 384-well format micro plate with transparent bottom (Cat.#: 142761, Nunc, Thermo Fisher Scientific, USA). On the next day, the cultivation media was exchanged for assay buffer, consisting of HBSS (Cat.#: H6648-500ML, Sigma-Aldrich, Merck, Germany), 20 mM HEPES (Cat.#: L0180-100, Biowest, France), 2.5 mM Probenecid (Cat.#: P8761, Sigma-Aldrich, Merck, Germany), adjusted for pH 7.4 and supplemented with 4.77 μM CalciFluor™ Fluo-8, AM (Cat.#: 1345980-40-6, Santa Cruz Biotechnology, USA). After 45 min incubation with assay buffer in 37°C and 5% CO2, the cells were incubated at RT in a dark place for another 15 minutes. After this time, preptin and its analogs were added by the Agilent Bravo Automated Liquid Handling Platform (Agilent Technologies, USA). The kinetics were measured by the Spark® multimode reader from Tecan (Tecan Group Ltd., Switzerland) for 10 min (approximately 45 cycles, excitation 485 nm, emission 535 nm, band width 10 nm). Before each kinetics, the background fluorescence (F0) was measured and the result was calculated as (Fmax−F0)/F0, where Fmax corresponds to the maximum response upon stimulation by the compounds. Each compound was tested in concentration 10^−4 M.

[2] = tested on: intracellular calcium in MIN6 pancreatic beta cells; experiment: Changes in intracellular calcium, MIN6 cells; format: cell-based, mouse; settings: 10^−4 M, Fluo-8 fluorescence, (Fmax−F0)/F0, one-way ANOVA
Method: as §4, with “Each compound was tested in concentration 10^−4 M.” left out

hBMSC-TERT = experiment: Osteoblast differentiation of hBMSC-TERT, alkaline phosphatase (ALP) activity assay; format: cell-based, human; settings: for ALP activity normalized to cell viability, compared to unstimulated cells: 100 ng/ml, 500 ng/ml and 1 ug/ml, day 7 of OB differentiation, changes not significant; for osteoblast differentiation of hBMSCs: summary in the conclusions
Method: hBMSC-TERT were plated at a density of 20 000 cells/cm^2 (Alizarin Red S staining) and 5 000 cells/well (ALP activity assay) in MEM medium (Gibco), supplemented with 10 % FBS (Gibco) and 1 % P/S (Gibco). One day after seeding, the medium was replaced with OB induction medium, composed of basal medium, supplemented with 10 mM B-glycerophosphate (Sigma-Aldrich), 10 nM dexamethasone (Sigma-Aldrich), 50 μg/mL vitamin C (Sigma-Aldrich), 10 nM vitamin D3 (Sigma-Aldrich) and treated with 100 ng/ml, 500 ng/ml and 1 ug/ml IGF2, IGF1, IGF2, preptin or vehicle (acetic acid) as a control. The medium was changed every other day for 7 days (ALP activity assay) or 10 days (Alizarin Red S staining).
ALP activity and cell viability assay were quantified at Day 7 of OB differentiation, in order to normalize the ALP activity data to the number of viable cells.
Cell viability assay was measured using a Cell Titer-Blue Assay Reagent (Promega) at fluorescence intensity (579Ex/584Em). ALP activity was detected by absorbance at 405 nm, using p-nitrophenyl phosphate (Sigma-Aldrich) as substrate.

[3] = tested on: human primary osteoblasts; settings: 8 days, ref [17] Bosetti et al.; cited from earlier work
[4] = tested on: phosphorylation of Akt in MC3T3-E1 preosteoblasts; experiment: Stimulation of phosphorylation of Akt, MC3T3-E1 preosteoblasts; format: cell-based, mouse; settings: 10^-8M, 5 min at RT, Western blot, n = 4, one-way ANOVA
Method: For measuring activation of intracellular signaling pathways, 40 000 of MC3T3-E1, U-2 OS and 3T3-R- cells per well and 100 000 of MIN6 cells per well were seeded in a 24-well plate, two days before stimulation. Cells’ stimulations were done after overnight starvation in a clean culture medium without serum. Cells were stimulated using preptins and their analogs at 10^-8M concentration for 5 min at RT. Cells were washed with PBS and froze immediately. Samples for immunoblots were prepared in Sample lysis buffer (62,5 mM Tris/HCl, 2 % SDS (w/v), 10 % glycerol (v/v), 0,01 % Brom-phenol Blue (w/v), 0,1M DTT, 50mM NaF, 1mM Na3VO4, 0,5 % protease inhibitory complex (v/v), pH 6,8).
Western blots were similarly used to study signaling pathways activated by our preptins in all cell lines mentioned above. Proteins were routinely analyzed using immunoblotting. […] The data are expressed as the contribution of target phosphorylation relative to non-stimulated cells (MC3T3-E1, U-2 OS, 3T3-R- and MIN6). Mean ± S.D. (n = 4) values were calculated. The significance of the changes in stimulation of phosphorylation in relation to unstimulated cells was calculated, using the One-way-ANOVA comparing all preptins and their analogs versus control non-stimulated cells.

[5] = tested on: cAMP in U-2 OS osteoblasts; experiment: Changes in cAMP levels (GloSensor), U-2 OS osteoblasts; format: cell-based, human; settings: 10^−4 M, GloSensor luminescence, (Lmax−L0)/L0, forskolin positive control
Method: Intracellular cAMP concentration was measured using Promega’s Glosensor on osteoblasts U-2 OS, pancreatic β-cells MIN6 and control cAMP-HEK cells (with stable transfection of F22 plasmid as described above). U-2 OS cells were transfected with F22 plasmid (pGloSensor™-22F, Promega, USA, 6.1 μg of plasmid per 1 million cells) using X-tremeGENE (Sigma-Aldrich, Germany). The ratio of plasmid and transfection reagent was 1:3 (plasmid: X-tremeGENE, m/v). The MIN6 cells were transfected with F22 plasmid in the same concentration as U-2 OS using electroporation by the Invitrogen™ Neon™ Transfection System Instrument (Thermo Fisher Scientific, USA, transfection conditions: 1400 V, 20 ms, 1 pulse). […]
After 24 hours (U-2 OS and cAMP-HEK cells) or 48 hours, respectively (MIN6 cells), cultivation media was changed for assay buffer (HBSS buffer with 20 mM HEPES and 2% (v/v) (cAMP-HEK, U-2 OS cells) or 6% (v/v), respectively (MIN6 cells), GloSensor™ reagent stock solution). The plate was incubated in the dark for 1–2 hours at RT and luminescence was measured until a stable signal was observed (L0). […] The luminescence kinetics were measured by Spark® for 30 min. The result was calculated as (Lmax−L0)/L0, where Lmax corresponds to the maximum response upon stimulation by the compounds. […]

human IGF1R = experiment: Competitive binding assay for IGF1R with [125I]-Iodotyrosyl-IGF1; settings: fibroblasts with IGF1R (R+39 cells); tracer 125I-IGF1; n ≥ 3
From the text: as §1, §2, §3

IGF2R = experiment: Competitive binding assay for IGF2R with [125I]-monoiodotyrosyl-Tyr2-IGF2; design: species or system mouse; settings: R- cells with IGF2R; tracer 125I-IGF2; n ≥ 3
From the text: as §1, §2, §3

[6] = tested on: intracellular calcium in U-2 OS cells; settings: previous paper, different method, ref [21]; cited from earlier work
From the text: It is well known that Ca^2+ regulates numerous physiological cellular processes as a second messenger. It plays a vital role in the regulation of cell proliferation, and its increased level is critical for secretagogue-induced insulin release in pancreatic beta cells. […] If preptin or its analogs were proficient insulin secretagogues or had any effect on bone cells, we would e ...

**Q.** For “DVSTPPTVLPDNFPRYPVGKFFQYDTWKQSTQRL [peptide 1, native human preptin]”, which “binding to IR-A” value (IR-A in IM-9 lymphocytes) is on record?
**A.** weak binding

**Q.** With “DVSTSQAVLPDDFPRYPVGZFFQYDTWRQSAGRL [peptide 15, Mouse preptin with Aib (Z) at position 20]” as the substance, how does the “changes in intracellular calcium relative to non-stimulated cells” value [1] read?
**A.** significant increase in intracellular calcium levels

**Q.** Which “changes in intracellular calcium relative to non-stimulated cells” value [2] does the source give for “DVTTSQAVLPDDFPRY [peptide 17, Mouse preptin fragment]” here?
**A.** completely inhibited calcium secretion

**Q.** With “FPRYPVGKFFQYNTW-NH2 [peptide 18, Mouse preptin fragment, amino acids 13–27, amidated C-end]” as the substance, how does the “changes in intracellular calcium relative to non-stimulated cells” value [1] read?
**A.** significant increase in intracellular calcium levels

**Q.** For “IGF2: insulin-like growth factor 2, comparator hormone”, which “ALP activity normalized to cell viability, compared to unstimulated cells” value (hBMSC-TERT) is on record?
**A.** signs of higher ALP activity

**Q.** And the “osteoblast differentiation of hBMSCs” value (hBMSC-TERT)?
**A.** neither preptin nor IGF2 significantly increased

**Q.** And the “change in ALP activity” value [3]?
**A.** no significant effects

**Q.** Which “binding to IR-A” value (IR-A in IM-9 lymphocytes) does the source give for “PVGKFFQYDTWKQSTQRL [peptide 3, Human preptin fragment]” here?
**A.** weak binding

**Q.** For “TWKQSTQRL-NH2 [peptide 13, Human preptin fragment]”, which “phosphorylation of Akt relative to non-stimulated cells” value [4] is on record?
**A.** Significantly lower phosphorylation of Akt

**Q.** What about the “changes in cAMP levels relative to non-stimulated cells” value [5] of the same substance?
**A.** significant decrease of cAMP

**Q.** With “WKQSTQRL-NH2 [peptide 12, Human preptin fragment]” as the substance, how does the “phosphorylation of Akt relative to non-stimulated cells” value [4] read?
**A.** Significantly lower phosphorylation of Akt

**Q.** With “preptin: 34-amino acid peptide derived from pro-IGF2; species or peptide number not stated at the place (DVSTPPTVLPDNFPRYPVGKFFQYDTWKQSTQRL; Preptin; UniProt P01344 93-126, looked up)” as the substance, how does the “ALP activity normalized to cell viability, compared to unstimulated cells” value (hBMSC-TERT) read?
**A.** signs of higher ALP activity

**Q.** What about the “osteoblast differentiation of hBMSCs” value (hBMSC-TERT) of the same substance?
**A.** neither preptin nor IGF2 significantly increased

**Q.** What about the “displacement of native ligand from IGF1R” value (human IGF1R) of the same substance?
**A.** did not displace native ligands even at the highest concentrations used

**Q.** And the “change in ALP activity” value [3]?
**A.** no significant effects

**Q.** And the “displacement of native ligand from IGF2R” value (IGF2R)?
**A.** did not displace native ligands even at the highest concentrations used

**Q.** And the “changes in intracellular calcium levels” value [6]?
**A.** able to induce changes in intracellular calcium levels
